Assay results as given in patent US20240382470A1, “Irak Inhibitor for Treating Cytokine Release-Related Conditions Associated With Infection by a Respiratory Virus” (Rigel Pharmaceuticals, Inc., priority 2021, published 2024).
Structures can show the parent of a compound that is named as a salt.

How the values were obtained:
[1] = system: Shp1fl/fl RosaERT2-Cre/+ mouse model of lung inflammation; settings: throughout the 21 days, control chow or Compound VII-49 chow
Method: ARDS-like disease model is produced by crossing Shp1^fl/fl to Shp1^fl/flRosa^ERT2-CRE/+ mice. Rosa^ERT2-CRE/+ is expressed under a Tamoxifen inducible promoter. When Tamoxifen is administered to Shp1^fl/flRosa^ERT2-CRE/+ mice CRE recombinase is activated resulting in deletion of Shp1 in hematopoietic cells.
Tamoxifen is administered at day 1 for a total of 4 days wherein Tamoxifen is administered twice a day at 200 mg/kg/bid (400 mg/kg/day). […] Mice were euthanized on day 21.
In an effort to generate an ARDS-like disease model, Shp1^fl/fl Rosa^ERT2-CRE/+ obtained from Jackson Laboratories were crossed to Shp1^fl/fl mice. Rosa^ERT2-CRE/+ is under the control of a Tamoxifen inducible promoter. Shp1^fl/fl Rosa^ERT2-CRE/+ mice were administered Tamoxifen to activate CRE recombinase resulting in deletion of Shp1 in all cells that normally express Shp1 (FIG. 1).
Mice were euthanized on day 21.

[2] = system: Dendritic cells + T cells + CD3/CD28 beads; experiment: CRS assay, IL6 ELISA of supernatant; format: cell-based; settings: Homo sapiens, read-out: Dendritic cells + T cells + CD3/CD28 beads IL6* ELISA EC50 (μM)
[3] = system: Dendritic cells + T cells + CD3/CD28 beads; experiment: CRS assay, IL2 ELISA of supernatant; format: cell-based; settings: Homo sapiens; 1 hour compound pre-incubation, overnight incubation; IL-2 only produced by activated T cells
human ACE2 = human ACE2 (Homo sapiens, UniProt Q9BYF1); settings: cited from earlier work
Chain of human ACE2 (Q9BYF1 18-805): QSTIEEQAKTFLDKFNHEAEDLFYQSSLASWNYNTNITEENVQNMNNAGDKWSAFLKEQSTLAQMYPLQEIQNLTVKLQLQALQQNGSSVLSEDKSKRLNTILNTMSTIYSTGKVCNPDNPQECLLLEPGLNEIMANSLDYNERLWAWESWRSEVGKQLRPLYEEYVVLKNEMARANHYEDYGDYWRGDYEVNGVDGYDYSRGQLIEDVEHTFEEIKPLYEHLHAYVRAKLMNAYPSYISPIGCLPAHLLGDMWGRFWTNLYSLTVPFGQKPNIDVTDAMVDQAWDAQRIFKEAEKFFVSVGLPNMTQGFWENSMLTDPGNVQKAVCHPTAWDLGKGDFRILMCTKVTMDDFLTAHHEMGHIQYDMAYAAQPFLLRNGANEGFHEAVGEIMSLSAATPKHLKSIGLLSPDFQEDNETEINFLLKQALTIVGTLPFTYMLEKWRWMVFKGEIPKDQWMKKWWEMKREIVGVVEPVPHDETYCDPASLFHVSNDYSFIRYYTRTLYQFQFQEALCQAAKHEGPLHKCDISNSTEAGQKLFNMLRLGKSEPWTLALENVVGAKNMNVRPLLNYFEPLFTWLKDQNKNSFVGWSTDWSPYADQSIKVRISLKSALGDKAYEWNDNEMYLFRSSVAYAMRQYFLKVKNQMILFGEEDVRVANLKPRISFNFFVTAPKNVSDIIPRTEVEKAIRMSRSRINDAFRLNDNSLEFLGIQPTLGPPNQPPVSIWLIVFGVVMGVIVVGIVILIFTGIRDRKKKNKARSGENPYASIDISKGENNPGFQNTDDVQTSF

In the case of `CCO[C@H]1CC[C@H](n2cc(NC(=O)c3csc(-c4cnn(C(C)OP(=O)(O)O)c4)n3)c(-c3nc(F)ccc3F)n2)CC1` (stereo partly shown) [VII-49, 1-(4-(4-((3-(3,6-difluoropyridin-2-yl)-1-((1r,4r)-4-ethoxycyclohexyl)-1H-pyrazol-4-yl)carbamoyl)thiazol-2-yl)-1H-pyrazol-1-yl)ethyl dihydrogen phosphate tris salt], the mortality [1] is reported as “no mice died”.
`CCO[C@H]1CC[C@H](n2cc(NC(=O)c3csc(-c4cn[nH]c4)n3)c(-c3nc(F)ccc3F)n2)CC1` [VI-176, N-(3-(3,6-difluoropyridin-2-yl)-1-((1r,4r)-4-ethoxycyclohexyl)-1H-pyrazol-4-yl)-2-(1H-pyrazol-4-yl)thiazole-4-carboxamide] gave an EC50 [2] of 0.195 µM and an EC50 [3] of 6900 nM.
For `N[C@@H](CCN[C@@H](CCN1CC[C@H]1C(=O)O)C(=O)O)C(=O)O` [nicotianamine], the IC50 (human ACE2) is given as 84 nM.
